Legend:
[1] = al-Refaie et al. 1992; cited from earlier work
[2] = design: species or system Sprague Dawley rats; conditions: rat, in vivo
Text: Sprague Dawley rats (n=130) were obtained from Charles River Laboratories and were iron overloaded by twelve week administration of iron in the feed. The rats were divided into the following groups: • (i) overloaded (O), • (ii) liposomes injected (OL), • (iii) overloaded animals with liposome entrapped desferrioxamine (OLD), and • (iv) overloaded with desferrioxamine (OD).
All control groups were pooled as there were not significant differences between the groups of normal non-treated controls. Range for iron was 35-150 μg/gram dry weight (human assay lab). A hepatic index of 1.0 is normal and results of 1.0-1.9 are described as nonspecific iron accumulation (human standards). […] FIGS. 4 and 5 show myocardial tissue from rat with iron overload.

[3] = background statement; cited from earlier work

Cc1c(O)c(=O)ccn1C [deferiprone]
severe agranulocytosis, share of patients [1]: about 2%

CC(=O)N(O)CCCCCNC(=O)CCC(=O)N(O)CCCCCNC(=O)CCC(=O)N(O)CCCCCN [desferrioxamine]
toxic effects in control rats [2]: Neither liposomes nor desferrioxamine (DFO) had toxic effects
oral absorption [3]: very low
